We go through 18 compounds from patent publication US7326732B2, “EP2 receptor agonists” (Pharmagene Laboratories Limited, priority 2004, dated 2008).

For test [1], the target named is T1, human EP4 receptor (Homo sapiens, UniProt P35408).
T1 construct: expressed in transfected cells
The test can be described thus: Binding ability to human EP receptors ([3H]PGE2 displacement), EP4. The settings on record: membranes expressing human EP4; [3H]PGE2 1 nM; Cheng-Prusoff; read-out: pKi (M) EP4 (converted). The method, then:
(§1) Membranes were prepared from cells stably transfected with human EP receptor cDNA. In brief, cells were cultured to confluency, scraped from culture flasks, and centrifuged (800 g, 8 minutes, 4° C.). Cells were twice washed in ice cold homogenisation buffer containing 10 mMTris-HCl, 1 mM EDTA.2Na, 250 mM sucrose, 1 mM PMSF, 0.3 mM indomethacin, pH 7.4, homogenised and re-centrifuged as before. The supernatant was stored on ice and pellets re-homogenised and re-spun. Supernatants were pooled and centrifuged at 40000 g, 10 minutes, 4° C. Resultant membrane pellets were stored at −80° C. until use. For assay, membranes expressing human EP4, EP3, EP2 or EP1 receptors were incubated in Millipore (MHVBN45) plates containing assay buffer, radiolabelled [^3H]PGE2 and 0.1 to 10 000 nM concentrations of compounds. Incubations were performed at suitable temperatures and for suitable times to allow equilibrium to be reached. Non-specific binding was determined in the presence of 10 uM PGE2. Bound and free radiolabel was separated by vacuum manifold filtration using appropriate wash buffers, and bound radiolabel was determined by scintillation counting. Constituents of each of the buffers are included in table 1 below. […] Raven Press, New York, 2nd edition.

For test [2], the target named is T2, human EP2 prostanoid receptors (Homo sapiens, UniProt P43116).
T2 construct: expressed in transfected cells; host or cells: HEK-293
Put plainly: Agonist activity at recombinant human EP2 prostanoid receptors (cAMP in HEK-293 clones). The test is classed as cell-based. As to conditions: for EC50: HEK-293 stably transfected with human EP2, cAMP accumulation, read-out: pEC50 EP2 (converted); for activity (EP2 part): functional classification at EP2. As to the method: Culture media was Minimal essential media (MEM), supplemented with 10% foetal bovine serum, 100 U/ml penicillin, […] streptomycin, 2.5 μg/ml fungizone, 2mM glutamine. Cells were cultured to confluency (3-4 days) prior to use. Culture media was removed, and confluent cells washed three times in MEM. […] Cells were then stimulated by the addition of 25 μl of PGE2 or agonists prepared in assay buffer. In antagonist studies, cells were pre-incubated with compounds for 30 minutes prior to PGE2-mediated stimulation Plates were incubated for 15 min at 37° C., before termination of the reaction by the addition of 25 μl 1M HCl. The plate was then frozen at -20° C. overnight before determination of cAMP concentration. Stimulated cAMP levels were determined by radioligand displacement binding. In brief, plates were thawed rapidly in a waterbath, and the samples neutralised by the addition of 25 μl 1M NaOH. 30 μl was transferred to Millipore plates pre-coated with 0.5% Polyethylenimine (PEI). Samples were diluted by addition of 90 μl cAMP determination buffer (50 mM Tris, 5 mM EDTA, pH 7.0). […] 15 μl of 2 nM (final concentration) [^3H] cAMP, and 15 μl of 3'5'-cAMP protein kinase (8 μg/well final concentration) prepared in cAMP determination buffer containing 0.1% BSA, were added to each well. Plates were incubated on ice for 2 hours, before bound and free radiolabel were separated by vacuum filtration harvesting using the Millipore vacuum manifold, using ice cold water as the termination buffer. The sealing mat was removed from the Millipore plates, and the filters allowed to dry overnight. 50 μl Microscint 0 (Packard Bioscience) was added to each well, and the plate counted using the Micro-Beta Trilux topcount ^3H program. cAMP accumulation was determined from the standard curve, and values calculated in pmoles cAMP/well. Antagonists affinities (pA2 values) were determined assuming a slope of unity and the […]-Schild equation, where pA2=log [concentration ratio-1]-log[antagonist].

For test [3], the target named is T3, human EP3 receptor (Homo sapiens, UniProt P43115).
T3 construct: expressed in transfected cells
T3 sequence (P43115 1-390): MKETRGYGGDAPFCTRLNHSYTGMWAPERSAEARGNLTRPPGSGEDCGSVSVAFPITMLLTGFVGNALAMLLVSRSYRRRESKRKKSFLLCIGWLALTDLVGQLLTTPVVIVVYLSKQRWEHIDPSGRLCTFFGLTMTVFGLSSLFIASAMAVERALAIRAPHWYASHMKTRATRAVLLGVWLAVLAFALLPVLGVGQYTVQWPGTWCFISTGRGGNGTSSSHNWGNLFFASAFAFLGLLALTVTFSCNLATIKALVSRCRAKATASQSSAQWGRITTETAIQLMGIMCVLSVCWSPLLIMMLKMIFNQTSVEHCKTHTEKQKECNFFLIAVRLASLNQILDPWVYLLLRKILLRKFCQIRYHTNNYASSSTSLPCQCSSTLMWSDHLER
Put plainly: Binding ability to human EP receptors ([3H]PGE2 displacement), EP3. The settings on record: membranes expressing human EP3; [3H]PGE2 2.5 nM; Cheng-Prusoff; read-out: pKi (M) EP3 (converted). As to the method: as §1

The target in test [4] is T4, human EP2 receptor (Homo sapiens, UniProt P43116).
T4 construct: expressed in transfected cells
The test can be described thus: Binding ability to human EP receptors ([3H]PGE2 displacement), EP2. The settings on record: membranes expressing human EP2; [3H]PGE2 3 nM; Cheng-Prusoff; read-out: pKi (M) EP2 (converted). As to the method:
as §1

T1 sequence (P35408 whole entry): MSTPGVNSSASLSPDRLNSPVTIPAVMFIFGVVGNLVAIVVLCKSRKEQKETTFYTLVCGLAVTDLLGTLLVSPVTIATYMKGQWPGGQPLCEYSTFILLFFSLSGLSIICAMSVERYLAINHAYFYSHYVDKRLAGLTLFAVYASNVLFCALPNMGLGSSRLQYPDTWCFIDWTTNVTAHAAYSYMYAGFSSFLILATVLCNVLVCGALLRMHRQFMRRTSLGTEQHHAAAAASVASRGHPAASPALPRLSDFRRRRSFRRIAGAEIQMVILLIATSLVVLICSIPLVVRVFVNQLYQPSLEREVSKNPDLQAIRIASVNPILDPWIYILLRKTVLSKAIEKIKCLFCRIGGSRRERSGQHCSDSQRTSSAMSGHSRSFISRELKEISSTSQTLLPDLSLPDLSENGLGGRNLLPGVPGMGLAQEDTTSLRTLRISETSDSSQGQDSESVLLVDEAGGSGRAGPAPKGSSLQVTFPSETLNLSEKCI
T2 sequence (P43116 whole entry): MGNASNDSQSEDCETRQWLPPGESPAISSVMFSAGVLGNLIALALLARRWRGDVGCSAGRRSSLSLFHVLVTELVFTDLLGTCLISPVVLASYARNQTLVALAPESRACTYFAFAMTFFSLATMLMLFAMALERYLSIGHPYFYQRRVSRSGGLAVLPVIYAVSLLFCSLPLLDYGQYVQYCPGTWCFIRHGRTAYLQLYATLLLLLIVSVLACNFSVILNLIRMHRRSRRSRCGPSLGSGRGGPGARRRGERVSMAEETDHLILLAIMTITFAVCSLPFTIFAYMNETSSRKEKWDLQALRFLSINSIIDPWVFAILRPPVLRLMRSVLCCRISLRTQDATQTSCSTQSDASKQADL
T4 sequence (P43116 whole entry): as above

Consider `O=C(O)COc1cccc(NC(=O)c2cc(-c3cccc(F)c3)ccc2F)c1` [Compound 169, {3-[(4,3′-Difluoro-biphenyl-3-carbonyl)-amino]-phenoxy}-acetic acid], for which the values for the Ki in test [1], in test [3] and in test [4] were greater than 1e-05 M, greater than 1e-05 M and less than 1e-07 M, respectively. Further, the EC50 in test [2] was less than 0.1 µM. Further, the “activity (EP2 part)” value in test [2] is “EP2 Agonist”.

As to `CC(C)c1cccc(-c2ccc(C(=O)Nc3cccc(CC(=O)O)c3)o2)c1` [Compound 34, (3-{[5-(3-Isopropyl-phenyl)-furan-2-carbonyl]-amino}-phenyl)-acetic acid], the Ki in test [1] is less than 1e-06 M; in test [3] it was greater than 1e-05 M; in test [4], less than 1e-06 M. Besides, the EC50 in test [2] is less than 1 µM. Besides, in test [2], the “activity (EP2 part)” value is recorded as “EP2 agonist”.

Turning to `O=C(Nc1cccc(Cc2nnn[nH]2)c1)c1ccc(-c2cc(Cl)cc(Cl)c2)o1` [Compound 82, 5-(3,5-Dichloro-phenyl)-furan-2-carboxylic acid [3-(1H-tetrazol-5-ylmethyl)-phenyl]-amide], the results for the Ki in test [1], in test [3] and in test [4] were greater than 1e-05 M, greater than 1e-05 M and less than 1e-07 M, respectively. For the same compound, in test [2], the EC50 was less than 0.1 µM. Further, the “activity (EP2 part)” value in test [2] is “EP2 Agonist”.

For `O=C(O)/C=C/c1cccc(NC(=O)c2cc(-c3cccc(F)c3)ccc2F)c1` [Compound 108, 3-{3-[(4,3′-Difluoro-biphenyl-3-carbonyl)-amino]-phenyl}-acrylic acid], the Ki in test [1] is greater than 1e-05 M; in test [3], greater than 1e-05 M; in test [4], less than 1e-07 M. The EC50 in test [2] was less than 0.1 µM. Also, the “activity (EP2 part)” value in test [2] is given as “EP2 Agonist”.

For the compound `O=C(Nc1ccc2sc(C(=O)O)cc2c1)c1ccc(-c2ccccc2)o1` [Compound 97, 5-[(5-Phenyl-furan-2-carbonyl)-amino]-benzo[b]thiophene-2-carboxylic acid], the Ki is greater than 1e-05 M in test [1], greater than 1e-05 M in test [3] and less than 1e-06 M in test [4]. Moreover, the EC50 in test [2] is less than 1 µM. Besides, the “activity (EP2 part)” value in test [2] was “EP2 Agonist”.

As for `O=C(O)Cc1cccc(NC(=O)c2csc(-c3ccccc3)n2)c1` [Compound 54, {3-[(2-Phenyl-thiazole-4-carbonyl)-amino]-phenyl}-acetic acid], the Ki in test [1] is greater than 1e-05 M; in test [3] it was greater than 1e-05 M; in test [4], less than 1e-06 M. In test [2], the EC50 is less than 1 µM. The “activity (EP2 part)” value in test [2] is given as “EP2 agonist”.

As to `Cn1c(C(=O)O)cc2cc(NC(=O)c3ccc(-c4ccccc4)o3)ccc21` [Compound 118, 1-Methyl-5-[(5-phenyl-furan-2-carbonyl)-amino]-1H-indole-2-carboxylic acid], the Ki is greater than 1e-05 M in test [1], greater than 1e-05 M in test [3] and less than 1e-06 M in test [4]. The EC50 in test [2] was less than 0.1 µM. Moreover, the “activity (EP2 part)” value in test [2] was “EP2 Agonist”.

As to `O=C(O)/C=C/c1cccc(NC(=O)c2cc(-c3cccc(Cl)c3)ccc2F)c1` [Compound 142, 3-{3-[(3′-Chloro-4-fluoro-biphenyl-3-carbonyl)-amino]-phenyl}-acrylic acid], the values for the Ki in test [1], in test [3] and in test [4] were greater than 1e-05 M, greater than 1e-05 M and less than 1e-07 M, respectively. Besides, the EC50 in test [2] is less than 0.1 µM. Further, the “activity (EP2 part)” value in test [2] was “EP2 Agonist”.

For the compound `O=C(O)CCc1cccc(NC(=O)c2cccc(-c3cccc(F)c3)n2)c1` [Compound 162, 3-(3-{[6-(3-Fluoro-phenyl)-pyridine-2-carbonyl]-amino}-phenyl)-propionic acid], the Ki in test [1] is greater than 1e-05 M; in test [3] it was greater than 1e-05 M; in test [4], less than 1e-07 M. For the same compound, the EC50 in test [2] was less than 0.1 µM. In test [2], the “activity (EP2 part)” value is reported as “EP2 Agonist”.

On to `O=C(O)/C=C/c1cccc(NC(=O)c2cccc(-c3ccc(F)cc3)n2)c1` [Compound 155, 3-(3-{[6-(4-Fluoro-phenyl)-pyridine-2-carbonyl]-amino}-phenyl)-acrylic acid], for which the results for the Ki in test [1], in test [3] and in test [4] were greater than 1e-05 M, greater than 1e-05 M and less than 1e-07 M, respectively. In addition, in test [2], the EC50 is less than 0.1 µM. Further, in test [2], the “activity (EP2 part)” value is “EP2 Agonist”.

In the case of `Cc1cc(-c2ccccc2)ccc1C(=O)Nc1cccc(CC(=O)O)c1` [Compound 47, {3-[(3-Methyl-biphenyl-4-carbonyl)-amino]-phenyl}-acetic acid], the values for the Ki in test [1], in test [3] and in test [4] were greater than 1e-05 M, greater than 1e-05 M and less than 1e-06 M, respectively.

For the compound `Cc1ccccc1-c1ccc(C(=O)Nc2cccc(CC(=O)O)c2)o1` [Compound 28, (3-{[5-(2-Methyl-phenyl)-furan-2-carbonyl]-amino}-phenyl)-acetic acid], the Ki in test [1] is greater than 1e-05 M; in test [3] it was greater than 1e-05 M; in test [4] it was less than 1e-06 M.

For the compound `O=C(O)/C=C/c1cccc(NC(=O)c2ccc(-c3cc(C(F)(F)F)cc(C(F)(F)F)c3)o2)c1` [Compound 102, 3-(3-{[5-(3,5-Bis-trifluoromethyl-phenyl)-furan-2-carbonyl]-amino}phenyl)-acrylic acid], the Ki in test [1] is greater than 1e-05 M; in test [3], greater than 1e-05 M; in test [4] it was less than 1e-07 M.

Regarding `O=C(O)Cc1cccc(NC(=O)c2ccc(-c3cccc(OC(F)(F)F)c3)o2)c1` [Compound 32, (3-{[5-(3-Trifluoromethoxy-phenyl)-furan-2-carbonyl]-amino}-phenyl)-acetic acid], the Ki in test [1] was less than 1e-05 M; in test [3], greater than 1e-05 M; in test [4], less than 1e-06 M.

As for `O=C(Nc1cccc(OCc2nnn[nH]2)c1)c1cccc(-c2ccccc2)n1` [Compound 174, 6-Phenyl-pyridine-2-carboxylic acid [3-(1H-tetrazol-5-ylmethoxy)-phenyl]-amide], the results for the Ki in test [1], in test [3] and in test [4] were less than 1e-06 M, greater than 1e-05 M and less than 1e-07 M, respectively.

Consider `O=C(O)/C=C/c1cccc(NC(=O)c2ccc(-c3ccc(-c4ccccc4)c(F)c3)o2)c1` [Compound 105, 3-(3-{[5-(2-Fluoro-biphenyl-4-yl)-furan-2-carbonyl]-amino}-phenyl)-acrylic acid], for which the Ki in test [1] is greater than 1e-05 M; in test [3], greater than 1e-05 M; in test [4], less than 1e-06 M.

As for `O=C(O)/C=C/c1cccc(NC(=O)c2ccc(-c3cccc(OCc4ccccc4)c3)o2)c1` [Compound 104, 3-(3-{[5-(3-Benzyloxy-phenyl)-furan-2-carbonyl]-amino}-phenyl)-acrylic acid], the Ki is greater than 1e-05 M in test [1], greater than 1e-05 M in test [3] and less than 1e-07 M in test [4].

As to `O=C(O)/C=C/c1cccc(NC(=O)c2ccc(C34CC5CC(CC(C5)C3)C4)o2)c1` [Compound 123, 3-{3-[(5-Adamantan-1-yl-furan-2-carbonyl)-amino]-phenyl}-acrylic acid], the Ki in test [1] is greater than 1e-05 M; in test [3] it was greater than 1e-05 M; in test [4] it was less than 1e-06 M.
